# Measured values published in patent US5739157A, “Diastereomeric pure trifluoromethyl ketone peptide derivatives as inhibitors of human leukocyte elastase” (Zeneca Limited, priority 1994, dated 1998).
# Like-named read-outs stand apart in the source and are kept apart here.
# Columns and labels:
# [1] = Epimeric stability in the solid state; assay type: physicochemical; conditions: anhydrous form
# [2] = administered in the above in vivo tests (hamsters)
# [3] = Hygroscopicity of the anhydrous crystalline form; assay type: physicochemical
# [4] = target: T1, human neutrophil elastase (HNE) (Homo sapiens, UniProt P08246); test: Acute Hemorrhagic Assay: HNE-induced lung hemorrhage; assay type: in vivo, Syrian hamsters; conditions: hamster, hamsters, 50 μg/animal HNE intratracheally, read-out: ED50, inhibition of HNE-induced hemorrhage
# T1 sequence (P08246 30-267): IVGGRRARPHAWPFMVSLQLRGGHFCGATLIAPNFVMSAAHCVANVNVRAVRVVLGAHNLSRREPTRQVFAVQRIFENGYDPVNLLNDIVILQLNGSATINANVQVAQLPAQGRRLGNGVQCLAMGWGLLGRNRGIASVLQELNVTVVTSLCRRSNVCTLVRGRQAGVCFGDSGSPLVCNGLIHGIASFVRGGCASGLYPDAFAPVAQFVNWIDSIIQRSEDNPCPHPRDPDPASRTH
# Experimental: This assay relies on monitoring only the amount of hemorrhage in the lung following intratracheal administration of human neutrophil elastase (HNE). Hemorrhage is quantified by disrupting erythrocytes recovered in lung lavage fluid and comparing that to dilutions of whole hamster blood. […] Male Syrian hamsters (fasted for 16-18 hours prior to use) are lightly anaesthetised with Brevital sodium (30 mg/kg i.p.). […] Four hours after enzyme administration, the animals are killed with an overdose of pentobarbital sodium, the thorax opened and the lungs and heart removed and the lungs cleared of extraneous material. The excised lungs are lavaged with three changes of 2 ml PBS via a tracheal cannula. The recovered lavages are pooled, the volumes (about 5 mL) are recorded and the lavages stored at 4° C. until assayed. […] The optical densities (OD) of the disrupted lavages and blood samples are determined at 540 nm. The (μL blood equivalents)/(mL lavage) are determined by comparing the OD of the test samples with the OD of the standard curve prepared from whole hamster blood. The total μL equivalents of blood recovered is determined by multiplying recovered lavage volume by the (μL blood equivalents)/(mL lavage) for each sample.
compound,measurement,setting,value
"COc1ccc(C(=O)N[C@H](C(=O)N2CCC[C@H]2C(=O)N[C@H](C(=O)C(F)(F)F)C(C)C)C(C)C)cc1 [compound of the invention, (S)-1-[(S)-2-(4-methoxybenzamido)-3-methylbutyryl]-N-[(S)-2-methyl-1-(trifluoroacetyl)propyl]pyrrolidine-2-carboxamide]",epimeric stability,[1],good epimeric stability
same,overt toxicity,[2],No overt toxicity
same,hygroscopicity,[3],non-hygroscopic
same,ED50,[4]; i.v. administration,0.59 mg/kg
same,ED50,[4]; oral dosing,5.2 mg/kg
